The source of these data is ChEMBL document CHEMBL4406831, “Discovery of fused heterocyclic carboxamide derivatives as novel α7-nAChR agonists: Synthesis, preliminary SAR and biological evaluation” (Eur J Med Chem, 2019).

Each structure is given as a SMILES string. Active and inactive are the calls of the source. The calls are words filed in the database; no cut-off is given here.

Format in all cases: cell-based
For test [1], the target named is T1, Neuronal acetylcholine receptor subunit alpha-7 (Homo sapiens, UniProt P36544). The test is described as follows: Agonist activity at human alpha7 nAChR expressed in Xenopus laevis oocytes assessed as induction of channel current at 100 uM at -90 mV holding potential by two-electrode voltage clamp method relative to acetylcholine. For orientation: In two-electrode clamp one electrode senses voltage and the other passes current.

For test [2], the target named is T1, Neuronal acetylcholine receptor subunit alpha-7. The test is described as follows: Agonist activity at human alpha7 nAChR expressed in Xenopus laevis oocytes assessed as induction of channel current at 10 uM at -90 mV holding potential by two-electrode voltage clamp method relative to acetylcholine.
Test [3] has the same target. The experiment in a line: Agonist activity at human alpha7 nAChR expressed in Xenopus laevis oocytes assessed as peak current amplitude at -90 mV holding potential by two-electrode voltage clamp method relative to acetylcholine.
The target is the same in test [4]. The test is described as follows: Agonist activity at human alpha7 nAChR expressed in Xenopus laevis oocytes assessed as induction of channel current at -90 mV holding potential by two-electrode voltage clamp method.
For test [5] the target is unchanged. The test is described as follows: Agonist activity at human alpha7 nAChR expressed in Xenopus laevis oocytes assessed as channel current at 10 uM at -90 mV holding potential in presence of 10 nM alpha7 nAChR antagonist, MLA by two-electrode voltage clamp method.
The target is the same in test [6]. The test is described as follows: Induction of desensitization at human alpha7 nAChR expressed in Xenopus laevis oocytes assessed as inhibition of acetylcholine induced current treated with compound prior to 100 uM acetylcholine challenge at -90 mV holding potential by two-electrode voltage clamp method.
In test [7] the target is T2, Neuronal acetylcholine receptor; alpha4/beta2 (Homo sapiens, UniProt P17787+P43681). The test is described as follows: Agonist activity at alpha4beta2 nAChR (unknown origin) expressed in Xenopus laevis oocytes at -90 mV holding potential by two-electrode voltage clamp method.
Test [8] has as its target T3, 5-hydroxytryptamine receptor 3A (Homo sapiens) (UniProt P46098).
T3 sequence (whole entry): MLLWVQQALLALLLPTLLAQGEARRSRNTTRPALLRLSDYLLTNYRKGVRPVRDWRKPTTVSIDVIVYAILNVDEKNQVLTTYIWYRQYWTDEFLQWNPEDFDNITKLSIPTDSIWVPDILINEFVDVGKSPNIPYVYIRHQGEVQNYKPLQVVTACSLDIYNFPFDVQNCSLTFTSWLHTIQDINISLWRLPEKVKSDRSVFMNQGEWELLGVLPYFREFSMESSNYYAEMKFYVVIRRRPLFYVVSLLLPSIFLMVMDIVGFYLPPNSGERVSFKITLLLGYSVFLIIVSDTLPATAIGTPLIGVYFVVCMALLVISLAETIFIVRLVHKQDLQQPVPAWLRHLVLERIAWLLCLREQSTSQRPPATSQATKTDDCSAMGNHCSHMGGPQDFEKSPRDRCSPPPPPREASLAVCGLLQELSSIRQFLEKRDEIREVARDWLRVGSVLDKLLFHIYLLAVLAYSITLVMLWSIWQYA
The experiment in a line: (§1) Antagonist activity at human 5-HT3A receptor expressed in Xenopus laevis oocytes at -90 mV holding potential in presence of serotonin by two-electrode voltage clamp method.

For test [9], the target named is T4, 5-hydroxytryptamine receptor 3A (Homo sapiens, UniProt P46098).
T4 sequence (P46098 whole entry): T3 sequence (whole entry)
Described as §1.

Test [10] deals with T3, 5-hydroxytryptamine receptor 3A (Homo sapiens). The experiment in a line: Agonist activity at human 5-HT3A receptor expressed in Xenopus laevis oocytes at 10 uM at -90 mV holding potential by two-electrode voltage clamp method.
Test [11] is filed under the species Homo sapiens. The experiment in a line: Selectivity index, ratio of IC50 for alpha3beta4 nAChR (unknown origin) expressed in Xenopus laevis oocytes to EC50 for human alpha7 nAChR expressed in Xenopus laevis oocytes.
Test [12] addresses T1, Neuronal acetylcholine receptor subunit alpha-7. The test is described as follows: Agonist activity at human alpha7 nAChR expressed in Xenopus laevis oocytes assessed as increase in channel current at 10 uM at -90 mV holding potential in presence of 10 nM alpha7 nAChR antagonist, MLA measured after 10 mins by two-electrode voltage clamp method.
For test [13], the target named is T5, Neuronal acetylcholine receptor; alpha3/beta4 (Homo sapiens, UniProt P30926+P32297). The test is described as follows: Agonist activity at alpha3beta4 nAChR (unknown origin) expressed in Xenopus laevis oocytes assessed as channel current at 10 uM at -90 mV holding potential by two-electrode voltage clamp method.
For test [14], the species on record is Homo sapiens. The test is described as follows: Selectivity index, ratio of EC50 for alpha4beta2 nAChR (unknown origin) expressed in Xenopus laevis oocytes to EC50 for human alpha7 nAChR expressed in Xenopus laevis oocytes.
For test [15], the target named is T1, Neuronal acetylcholine receptor subunit alpha-7. The test is described as follows: Agonist activity at human alpha7 nAChR expressed in Xenopus laevis oocytes preincubated with 1 uM alpha7 type-2 PAM PNU-120596 at -90 mV holding potential by two-electrode voltage clamp method.
Test [16] addresses T2, Neuronal acetylcholine receptor; alpha4/beta2. The experiment in a line: Agonist activity at alpha4beta2 nAChR (unknown origin) expressed in Xenopus laevis oocytes assessed as induction of current at 10 uM at -90 mV holding potential by two-electrode voltage clamp method.
For test [17], the target named is T3, 5-hydroxytryptamine receptor 3A (Homo sapiens). The experiment in a line: Antagonist activity at human 5-HT3A receptor expressed in Xenopus laevis oocytes at 10 uM at -90 mV holding potential in presence of serotonin by two-electrode voltage clamp method.
In test [18] the target is T5, Neuronal acetylcholine receptor; alpha3/beta4. The experiment in a line: Antagonist activity at alpha3beta4 nAChR (unknown origin) expressed in Xenopus laevis oocytes assessed as inhibition of acetylcholine-induced channel current at -90 mV holding potential by two-electrode voltage clamp method.
Test [19] has the same target. The test is described as follows: Agonist activity at alpha3beta4 nAChR (unknown origin) expressed in Xenopus laevis oocytes assessed as induction of current at 100 uM at -90 mV holding potential by two-electrode voltage clamp method.

T1 sequence (P36544 whole entry): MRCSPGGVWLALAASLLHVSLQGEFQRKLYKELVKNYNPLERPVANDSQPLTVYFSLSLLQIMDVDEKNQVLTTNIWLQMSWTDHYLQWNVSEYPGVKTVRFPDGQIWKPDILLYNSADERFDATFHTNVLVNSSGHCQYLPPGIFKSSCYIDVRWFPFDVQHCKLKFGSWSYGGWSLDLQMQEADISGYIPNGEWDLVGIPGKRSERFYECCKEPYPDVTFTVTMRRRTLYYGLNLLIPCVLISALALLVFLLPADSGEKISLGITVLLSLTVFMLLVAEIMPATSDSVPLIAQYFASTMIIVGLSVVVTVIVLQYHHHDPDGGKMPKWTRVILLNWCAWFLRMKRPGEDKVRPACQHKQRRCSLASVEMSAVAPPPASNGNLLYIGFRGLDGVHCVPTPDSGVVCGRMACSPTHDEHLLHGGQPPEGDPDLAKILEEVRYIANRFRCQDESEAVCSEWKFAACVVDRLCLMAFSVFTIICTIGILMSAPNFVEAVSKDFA
T5 sequence (P30926 whole entry): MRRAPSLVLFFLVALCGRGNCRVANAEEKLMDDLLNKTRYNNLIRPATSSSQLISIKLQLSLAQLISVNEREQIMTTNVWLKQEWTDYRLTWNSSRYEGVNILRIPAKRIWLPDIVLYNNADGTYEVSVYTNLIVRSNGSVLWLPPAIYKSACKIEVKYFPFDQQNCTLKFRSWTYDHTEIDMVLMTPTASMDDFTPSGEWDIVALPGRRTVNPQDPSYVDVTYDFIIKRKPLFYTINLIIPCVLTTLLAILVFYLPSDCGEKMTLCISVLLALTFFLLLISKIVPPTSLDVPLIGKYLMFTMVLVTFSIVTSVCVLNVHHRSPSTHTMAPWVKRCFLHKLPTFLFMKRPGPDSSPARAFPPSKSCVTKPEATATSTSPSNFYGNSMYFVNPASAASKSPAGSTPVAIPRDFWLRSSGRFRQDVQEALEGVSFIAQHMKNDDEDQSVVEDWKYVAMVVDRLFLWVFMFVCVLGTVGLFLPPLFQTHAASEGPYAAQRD
T5 sequence (P32297 whole entry): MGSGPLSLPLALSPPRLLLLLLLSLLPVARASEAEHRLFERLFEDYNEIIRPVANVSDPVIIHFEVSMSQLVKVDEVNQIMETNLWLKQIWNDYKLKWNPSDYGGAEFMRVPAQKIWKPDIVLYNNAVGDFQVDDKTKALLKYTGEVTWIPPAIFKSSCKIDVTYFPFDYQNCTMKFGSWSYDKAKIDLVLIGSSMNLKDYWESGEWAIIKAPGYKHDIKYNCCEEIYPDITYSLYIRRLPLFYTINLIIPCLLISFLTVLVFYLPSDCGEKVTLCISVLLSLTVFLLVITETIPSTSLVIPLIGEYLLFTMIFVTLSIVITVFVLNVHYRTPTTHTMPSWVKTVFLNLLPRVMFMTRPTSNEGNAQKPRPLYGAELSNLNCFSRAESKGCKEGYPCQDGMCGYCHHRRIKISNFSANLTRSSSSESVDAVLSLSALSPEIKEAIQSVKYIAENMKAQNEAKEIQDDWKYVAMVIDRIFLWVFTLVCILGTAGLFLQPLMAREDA
T2 sequence (P17787 whole entry): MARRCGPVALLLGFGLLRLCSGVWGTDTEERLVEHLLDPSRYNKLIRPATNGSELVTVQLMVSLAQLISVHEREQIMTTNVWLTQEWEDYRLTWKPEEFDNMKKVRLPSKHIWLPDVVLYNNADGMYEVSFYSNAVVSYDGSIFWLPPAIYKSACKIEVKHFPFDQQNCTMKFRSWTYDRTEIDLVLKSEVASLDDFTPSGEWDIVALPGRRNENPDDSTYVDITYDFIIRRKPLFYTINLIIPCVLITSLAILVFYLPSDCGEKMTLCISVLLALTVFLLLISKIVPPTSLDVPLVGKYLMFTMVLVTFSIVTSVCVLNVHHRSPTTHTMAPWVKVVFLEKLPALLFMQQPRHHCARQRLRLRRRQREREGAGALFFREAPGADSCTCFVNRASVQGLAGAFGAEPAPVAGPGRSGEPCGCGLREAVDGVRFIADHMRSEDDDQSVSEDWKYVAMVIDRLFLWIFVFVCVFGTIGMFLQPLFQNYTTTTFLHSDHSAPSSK
T2 sequence (P43681 whole entry): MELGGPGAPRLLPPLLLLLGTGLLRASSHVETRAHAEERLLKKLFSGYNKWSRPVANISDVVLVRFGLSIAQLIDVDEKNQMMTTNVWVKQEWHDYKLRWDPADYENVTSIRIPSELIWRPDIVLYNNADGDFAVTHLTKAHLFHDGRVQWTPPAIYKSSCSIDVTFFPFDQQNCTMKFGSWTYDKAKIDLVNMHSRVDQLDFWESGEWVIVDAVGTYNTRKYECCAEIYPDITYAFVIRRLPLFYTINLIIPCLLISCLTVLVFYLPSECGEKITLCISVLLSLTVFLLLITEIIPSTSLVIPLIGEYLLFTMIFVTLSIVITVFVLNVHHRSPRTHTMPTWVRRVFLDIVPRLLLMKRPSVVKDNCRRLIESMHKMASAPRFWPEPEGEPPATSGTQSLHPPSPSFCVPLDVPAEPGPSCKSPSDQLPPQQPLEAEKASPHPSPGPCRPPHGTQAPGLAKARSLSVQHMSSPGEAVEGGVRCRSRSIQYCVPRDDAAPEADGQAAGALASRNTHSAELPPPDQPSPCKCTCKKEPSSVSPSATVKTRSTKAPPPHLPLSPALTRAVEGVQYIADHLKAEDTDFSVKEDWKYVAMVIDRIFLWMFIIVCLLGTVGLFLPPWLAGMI

`O=C(N[C@H]1CN2CCC1CC2)c1cc2ccc3cc(-c4ccccc4)ccc3n2c1`: the Activity was 60 to 120% in test [1] and < 60% in test [2].

As for `CCCC(C)Oc1ccc2c(ccc3cc(C(=O)N[C@H]4CN5CCC4CC5)cn32)c1` (stereo partly specified), the outcome in [1] was inactive.

With `O=C(N[C@H]1CN2CCC1CC2)c1cc2ccc3cc(F)ccc3n2c1`, the Emax in [3] was 58.6%. In addition, the Activity in [2] lay within 60 to 120%. For the same molecule, the concentration for a half-maximal effect (EC50) in test [4] came to 8270 nM.

Turning to `O=C(N[C@H]1CN2CCC1CC2)c1cc2ccc3cc(OCc4cccnc4)ccc3n2c1`, the Activity in [1] was in the range of 60 to 120%.

Take `O=C(N[C@H]1CN2CCC1CC2)c1cc2n(c1)CCCC2`: the Activity in test [1] was < 60%.

For `O=C(N[C@H]1CN2CCC1CC2)c1cc2ccc3cc(C4CC4)ccc3n2c1`, the Activity in test [2] is < 60%.

Take `O=C(N[C@H]1CN2CCC1CC2)c1cc2ccc3cc(-c4cccnc4)ccc3n2c1`: the Activity in test [1] is 60 to 120%; in test [2] it was < 60%.

Take `O=C(N[C@H]1CN2CCC1CC2)c1cc2ccc3cc(OCc4ccc(F)cc4)ccc3n2c1`: in test [1], the Activity is < 60%.

Consider `O=C(N[C@H]1CN2CCC1CC2)c1cc2ccc3cc(OC(F)F)ccc3n2c1`, for which the Activity in [1] was 60 to 120%; in test [2] it was < 60%.

Consider `O=C(N[C@H]1CN2CCC1CC2)c1cc2cccc(Cl)c2s1` [ENCENICLINE], for which the Emax in test [3] was 27.6%. Besides, the concentration for a half-maximal effect (EC50) in test [4] was determined as 250 nM.

With `CC(C)Oc1ccc2c(ccc3cc(C(=O)N[C@H]4CN5CCC4CC5)cn32)c1`, the outcome in test [1] was inactive.

In the case of `O=C(N[C@H]1CN2CCC1CC2)c1cc2ccc3cc(-c4ccc(F)cc4)ccc3n2c1`, in test [1], the outcome was inactive.

For `O=C(N[C@H]1CN2CCC1CC2)c1cc2ccc3cc(-c4ccsc4)ccc3n2c1`, the Activity in [1] is < 60%.

On to `C=CCOc1ccc2c(ccc3cc(C(=O)N[C@H]4CN5CCC4CC5)cn32)c1`, for which the outcome in test [1] was inactive.

With `O=C(N[C@H]1CN2CCC1CC2)c1cc2ccc3cc(Cl)ccc3n2c1`, the Activity in test [2] is < 60%.

For the molecule `O=C(N[C@H]1CN2CCC1CC2)c1cc2ccc3cc(C(F)(F)F)ccc3n2c1`, in test [2], the Activity was < 60%.

Turning to `O=C(N[C@H]1CN2CCC1CC2)c1cc2ccc3cc(Br)ccc3n2c1`, in [2], the Activity is < 60%.

In the case of `O=C(N[C@H]1CN2CCC1CC2)c1cc2ccc3cc(O)ccc3n2c1`, in [3], the Emax was found to be 47.3%. Also, in test [1], the Activity is > 120%. Besides, in test [4], the 50% effective concentration (EC50) amounted to 2000 nM.

On to `CCC(CC)Oc1ccc2c(ccc3cc(C(=O)N[C@H]4CN5CCC4CC5)cn32)c1`, for which, in test [1], the outcome was inactive.

`CC(C)(C)c1ccc(-c2ccc3c(ccc4cc(C(=O)N[C@H]5CN6CCC5CC6)cn43)c2)cc1`: the Activity in test [1] and in [2] was 60 to 120% throughout.

Turning to `O=C(N[C@H]1CN2CCC1CC2)c1cc2ccc3cc(-c4ccncc4)ccc3n2c1`, in [1], the Activity was < 60%.

For `O=C(N[C@H]1CN2CCC1CC2)c1cc2ccc3cc(N4CCCCC4)ccc3n2c1`, the Activity in test [2] was < 60%.

Consider `COc1ccc2c(ccc3cc(C(=O)N[C@H]4CN5CCC4CC5)cn32)c1`, for which the Activity in test [2] was < 60%.

For `Cc1ccccc1-c1ccc2c(ccc3cc(C(=O)N[C@H]4CN5CCC4CC5)cn32)c1`, the Emax in [3] came out at 23.1%. Besides, the Activity in [1] was > 120%; in [2], 60 to 120%. In addition, in test [4], the EC50 turned out to be 3200 nM.

Regarding `O=C(N[C@H]1CN2CCC1CC2)c1cc2ccc3ccccc3n2c1`, the outcome in test [5], in test [10] and in test [13] was inactive. Besides, the IC50 in test [6] worked out at 21.2 nM; in test [9], 710 nM; in test [18], 10100 nM. Besides, the inhibition entry in [6] and in test [8] was “Dose-dependent effect” in each case. The 50% effective concentration (EC50) in test [7] is 6140 nM; in test [15], 120 nM; in [4], 1880 nM. Moreover, the Ratio IC50/EC50 in the test filed under Homo sapiens [11] is 5. The outcome in test [12] and in test [16] was Active. Also, the maximum response (Emax) in test [3] was 72.4%. For the same molecule, the Ratio EC50 in the test listed under Homo sapiens [14] was determined as 3. The Activity entry was “Dose-dependent effect” in test [15] and 60 to 120% in test [2]. Further, the inhibition entry in test [17] was “Active”.

For the molecule `C#CCOc1ccc2c(ccc3cc(C(=O)N[C@H]4CN5CCC4CC5)cn32)c1`, the maximum response (Emax) in [3] was 34.5%. In addition, in test [2], the Activity lay in the range of 60 to 120%. For the same molecule, the EC50 in test [4] was 7630 nM.

As to `Cc1ccc2c(ccc3cc(C(=O)N[C@H]4CN5CCC4CC5)cn32)c1`, the maximal response (Emax) in [3] was determined as 29.2%. Moreover, the Activity in test [1] and in test [2] was > 120% in each case. For the same molecule, the 50% effective concentration (EC50) in test [4] came out at 1270 nM.

Turning to `O=C(N[C@H]1CN2CCC1CC2)c1cc2n(c1)CCC2`, the Activity in [1] is < 60%.

On to `CC(=O)OCC[N+](C)(C)C`, for which, in test [19], the outcome was Active.

Consider `CC(C)COc1ccc2c(ccc3cc(C(=O)N[C@H]4CN5CCC4CC5)cn32)c1`, for which the result in test [2] was inactive.

As to `CCCOc1ccc2c(ccc3cc(C(=O)N[C@H]4CN5CCC4CC5)cn32)c1`, the Activity in test [1] and in test [2] was < 60% throughout.

Turning to `O=C(N[C@H]1CN2CCC1CC2)c1cc2ccc3cc(OC4CCC4)ccc3n2c1`, the Activity in [1] was < 60%.

On to `O=C(N[C@H]1CN2CCC1CC2)c1cc2ccc3cc(OCc4ccccc4)ccc3n2c1`, for which the Activity in [1] is < 60%.

Regarding `Cc1cc(-c2ccc3c(ccc4cc(C(=O)N[C@H]5CN6CCC5CC6)cn43)c2)ccn1`, the Activity in test [1] is < 60%.

For the molecule `O=C(N[C@H]1CN2CCC1CC2)c1cc2ccc3cc(N4CCCC4)ccc3n2c1`, in test [2], the Activity was < 60%.

The Emax is the maximal effect, on the per cent scale that the assay sets. Broadly, the EC50 is the concentration at which the effect is half-maximal. A word on the IC50: it is the concentration that inhibits the measured activity by half.
